target: T1, truncated human beta-secretase (residues 1-458, His6-tagged at the C-terminus) (Homo sapiens, UniProt P56817); experiment: BACE fluorescence quench assay; assay type: biochemical; details: not given
T1 construct: truncated human beta-secretase (residues 1-458, His6-tagged at the C-terminus); His6 (C); made in house; host or cells: insect cells D. melanogaster S2 (baculovirus expression system (so in the source))
Procedure: The assay was performed at room temperature in 96-well white opaque Optiplates aque Optiplates (PerkinElmer, Waltham, Mass.) in a total volume of 200 μl of the incubation mixture containing 50 mM sodium acetate buffer, pH 4.5, 0.4 μM FRET substrate, 2.4 nM enzyme, 5% DMSO, and 0.05% Brij-35. The tested compounds were serially diluted in DMSO and pre-incubated with the substrate. The reaction was started by addition of enzyme, and the progress of the reaction was followed by measuring fluorescence with an excitation wavelength of 480 nm and an emission wavelength of 520 nm. Ten measurements were taken every 5-10 min, and the intensity of fluorescence was regressed against time in order to derive velocities of reaction in all 96 wells. […] IC50 values were calculated by fitting percent inhibition vs. inhibitor concentration into a four-parametric logistic model using XLFit software (IDBS, Guildford, UK).

T1 sequence (P56817 22-458): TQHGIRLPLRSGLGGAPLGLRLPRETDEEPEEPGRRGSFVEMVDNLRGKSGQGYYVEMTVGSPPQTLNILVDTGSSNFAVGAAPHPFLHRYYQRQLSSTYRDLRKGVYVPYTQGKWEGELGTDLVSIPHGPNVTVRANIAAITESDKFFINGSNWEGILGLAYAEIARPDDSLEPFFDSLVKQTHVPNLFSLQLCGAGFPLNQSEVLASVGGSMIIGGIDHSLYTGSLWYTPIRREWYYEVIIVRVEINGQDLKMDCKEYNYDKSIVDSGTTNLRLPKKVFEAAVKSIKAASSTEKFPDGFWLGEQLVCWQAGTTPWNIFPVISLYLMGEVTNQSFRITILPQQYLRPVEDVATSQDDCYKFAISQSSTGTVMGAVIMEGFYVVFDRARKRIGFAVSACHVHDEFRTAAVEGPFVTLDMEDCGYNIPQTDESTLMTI

Row | Structure (SMILES) | IC50
1 | CN1C(=O)[C@@]2(C[C@H](c3ccccc3)Oc3ccc(Br)cc32)N=C1N (racemic) [Compound 44a, Trans-2′-amino-6-bromo-1′-methyl-2-phenylspiro[chroman-4,4′-imidazol]-5′(1′H)-one] | 5000 to 10000 nM
2 | CN1C(=O)[C@@]2(C[C@@H](c3ccccc3)Oc3ccc(Br)cc32)N=C1N (relative stereo) [Compound 44b, Cis-2′-amino-6-bromo-1′-methyl-2-phenylspiro[chroman-4,4′-imidazol]-5′(1′H)-one] | 5000 to 10000 nM
3 | CN1C(=O)C2(CC(c3ccccc3)Oc3ccc(-c4ccc(F)c(C#N)c4)cc32)N=C1N (stereo not shown) [Compound 4, 5-(2′-amino-1′-methyl-5′-oxo-2-phenyl-1′,5′-dihydrospiro[chroman-4,4′-imidazole]-6-yl)-2-fluorobenzonitrile] | 100 to 500 nM
4 | CN1C(=O)C2(CC(c3ccccc3)Oc3ccc(-c4cncc(C#N)c4)cc32)N=C1N (stereo not shown) [Compound 5, 5-(2′-amino-1′-methyl-5′-oxo-2-phenyl-1′,5′-dihydrospiro[chroman-4,4′-imidazole]-6-yl)nicotinonitrile] | 100 to 500 nM
5 | COc1cccc(-c2ccc3c(c2)C2(CC(c4ccccc4)O3)N=C(N)N(C)C2=O)c1 (stereo not shown) [Compound 13, 2′-amino-6-(3-methoxyphenyl)-1′-methyl-2-phenylspiro[chroman-4,4′-imidazol]-5′(1′H)-one] | 100 to 500 nM
6 | CN1C(=O)C2(CC(c3ccccc3)Oc3ccc(-c4cccnc4)cc32)N=C1N (stereo not shown) [Compound 15, 2′-amino-1′-methyl-2-phenyl-6-(pyridin-3-yl)spiro[chroman-4,4′-imidazol]-5′(1′H)-one] | 500 to 1000 nM
7 | CN1C(=O)C2(CC(c3ccccc3)Oc3ccc(-c4cc(C#N)ccc4Cl)cc32)N=C1N (stereo not shown) [Compound 21, 3-(2′-amino-1′-methyl-5′-oxo-2-phenyl-1′,5′-dihydrospiro[chroman-4,4′-imidazole]-6-yl)-4-chlorobenzonitrile] | 500 to 1000 nM
8 | C=Cc1cccc(-c2ccc3c(c2)C2(CC(c4ccccc4)O3)N=C(N)N(C)C2=O)c1 (stereo not shown) [Compound 22, 2′-amino-1′-methyl-2-phenyl-6-(3-vinylphenyl)spiro[chroman-4,4′-imidazol]-5′(1′H)-one] | 1000 to 5000 nM

same assay, conditions: in vitro enzyme activity, BACE fluorescence assay, pH 4.5; read-out: IC50

Row | Structure (SMILES) | IC50
9 | CN1O[C@@]2(C[C@@]3(CCOC3)Oc3ccc(-c4cccc(C#N)c4)cc32)N=C1N (relative stereo) [Compound 113a] | 500 to 1000 nM
10 | CN1C(=O)[C@@]2(CC(c3cccs3)Oc3ccc(-c4cccc(C#N)c4)cc32)N=C1N (stereo in doubt) [Compound 8a, 3-((2S,4S)-2′-amino-1′-methyl-5′-oxo-2-(thiophen-2-yl)-1′,5′-dihydrospiro[chroman-4,4′-imidazole]-6-yl)benzonitrile] | 100 to 500 nM
11 | CN1O[C@]2(C[C@@H](C[C@H]3CCCO3)Oc3ccc(-c4cccc(C#N)c4)cc32)N=C1N (stereo in doubt) [Compound 360, 3-(3′-amino-2′-methyl-2-((tetrahydrofuran-2-yl)methyl)-2′H-spiro[chroman-4,5′-[1,2,4]oxadiazole]-6-yl)benzonitrile] | 500 to 1000 nM
12 | CN1O[C@]2(C[C@@H](C[C@@H]3CCCO3)Oc3ccc(-c4cccc(C#N)c4)cc32)N=C1N (stereo in doubt) [Compound 367, 3-(3′-amino-2′-methyl-2-((tetrahydrofuran-2-yl)methyl)-2′H-spiro[chroman-4,5′-[1,2,4]oxadiazole]-6-yl)benzonitrile] | 500 to 1000 nM
13 | CN1C(=O)C2(CC(C3CCCOC3)Oc3ccc(-c4cccc(C#N)c4)cc32)N=C1N (stereo not shown) [Compound 1, 3-(2′-amino-1′-methyl-5′-oxo-2-(tetrahydro-2H-pyran-3-yl)-1′,5′-dihydrospiro[chroman-4,4′-imidazole]-6-yl)benzonitrile] | 1 to 100 nM
14 | CN1C(=O)C2(CC(c3ccccc3)Oc3ccc(-c4cccc(C#N)c4)cc32)N=C1N (stereo not shown) [Compound 2, 3-(2′-amino-1′-methyl-5′-oxo-2-phenyl-1′,5′-dihydrospiro[chroman-4,4′-imidazole]-6-yl)benzonitrile] | 100 to 500 nM
15 | CN1C(=O)C2(CC(C3CCCCC3)Oc3ccc(-c4cccc(C#N)c4)cc32)N=C1N (stereo not shown) [Compound 3, 3-(2′-amino-2-cyclohexy-1′-methyl-5′-oxo-1′,5′-dihydrospiro[chroman-4,4′-imidazole]-6-yl)benzonitrile] | 100 to 500 nM
16 | CN1C(=O)C2(CC(c3ccc(Cl)cc3)Oc3ccc(-c4cccc(C#N)c4)cc32)N=C1N (stereo not shown) [Compound 6] | 100 to 500 nM
17 | CN1C(=O)C2(CC(c3cccc(F)c3)Oc3ccc(-c4cccc(C#N)c4)cc32)N=C1N (stereo not shown) [Compound 7] | 100 to 500 nM
18 | CN1C(=O)C2(CC(c3ccccc3F)Oc3ccc(-c4cccc(C#N)c4)cc32)N=C1N (stereo not shown) [Compound 9, 3-(2′-amino-2-(2-fluorophenyl)-1′-methyl-5′-oxo-1′,5′-dihydrospiro[chroman-4,4′-imidazole]-6-yl)benzonitrile] | 100 to 500 nM
19 | CN1C(=O)C2(CC(c3ccccc3)Oc3ccc(-c4cccc(C5CC5)c4)cc32)N=C1N (stereo not shown) [Compound 11, 2′-amino-6-(3-cyclopropylphenyl)-1′-methyl-2-phenylspiro[chroman-4,4′-imidazol]-5′(1′H)-one] | 100 to 500 nM
20 | CCN1C(=O)C2(CC(c3ccccc3)Oc3ccc(-c4cccc(C#N)c4)cc32)N=C1N (stereo not shown) [Compound 12, 3-(2′-amino-1′-ethyl-5′-oxo-2-phenyl-1′,5′-dihydrospiro[chroman-4,4′-imidazole]-6-yl)benzonitrile] | 100 to 500 nM
21 | CN1C(=O)C2(CC(c3cccc(F)c3F)Oc3ccc(-c4cccc(C#N)c4)cc32)N=C1N (stereo not shown) [Compound 14, 3-(2′-amino-2-(2,3-difluorophenyl)-1′-methyl-5′-oxo-1′,5′-dihydrospiro[chroman-4,4′-imidazole]-6-yl)benzonitrile] | 100 to 500 nM
22 | CN1C(=O)C2(CC(c3ccc(C(F)(F)F)cc3)Oc3ccc(-c4cccc(C#N)c4)cc32)N=C1N (stereo not shown) [Compound 16] | 500 to 1000 nM
23 | N#Cc1cccc(-c2ccc3c(c2)C2(CC(c4ccccc4)O3)N=C(N)N(CC3CCCCC3)C2=O)c1 (stereo not shown) [Compound 18, 3-(2′-amino-1′-(cyclohexylmethyl)-5′-oxo-2-phenyl-1′,5′-dihydrospiro[chroman-4,4′-imidazole]-6-yl)benzonitrile] | 500 to 1000 nM
24 | CN1C(=O)[C@@]2(C[C@@H](c3ccc(F)cc3)Oc3ccc(-c4cccc(C#N)c4)cc32)N=C1N [Compound 19a, 3-((2S,4S)-2′-amino-2-(4-fluorophenyl)-1′-methyl-5′-oxo-1′,5′-dihydrospiro[chroman-4,4′-imidazole]-6-yl)benzonitrile] | 500 to 1000 nM
25 | COc1cccc(C2CC3(N=C(N)N(C)C3=O)c3cc(-c4cccc(C#N)c4)ccc3O2)c1 (stereo not shown) [Compound 23, 3-(2′-amino-2-(3-methoxyphenyl)-1′-methyl-5′-oxo-1′,5′-dihydrospiro[chroman-4,4′-imidazole]-6-yl)benzonitrile] | 1000 to 5000 nM

Now from value to compound:

Row | IC50 | Structure (SMILES)
26 | 1 to 100 nM | CN1C(=O)[C@@]2(C[C@H](c3ccccc3)Oc3ccc(-c4cccc(C#N)c4)cc32)N=C1N (racemic) [Compound 2a, 3-(2′-amino-1′-methyl-5′-oxo-2-phenyl-1′,5′-dihydrospiro[chroman-4,4′-imidazole]-6-yl)benzonitrile]
27 | 100 to 500 nM | CN1O[C@@]2(C[C@H]([C@@H]3CCCOC3)Oc3ccc(-c4cc(F)cc(F)c4)cc32)N=C1N (racemic) [Compound 326, (2S,4S/2R,4R)-6-(3,5-difluorophenyl)-2′-methyl-2-((S/R)-tetrahydro-2H-pyran-3-yl)-2′H-spiro[chroman-4,5′-[1,2,4]oxadiazol]-3′-amine]
28 | 1000 to 5000 nM | CN1C(=O)[C@@]2(CC(c3cccs3)Oc3ccc(-c4cccc(C#N)c4)cc32)N=C1N (stereo in doubt) [Compound 8b, 3-((2R,4S)-2′-Amino-1′-methyl-5′-oxo-2-(thiophen-2-yl)-1′,5′-dihydrospiro[chroman-4,4′-imidazole]-6-yl)-benzonitrile]
29 | 500 to 1000 nM | CN1O[C@]2(C[C@H](CC3CCCO3)Oc3ccc(-c4cccc(C#N)c4)cc32)N=C1N (stereo in doubt) [Compound 366, 3-(3′-amino-2′-methyl-2-((tetrahydrofuran-2-yl)methyl)-2′H-spiro[chroman-4,5′-[1,2,4]oxadiazole]-6-yl)benzonitrile]
30 | 1 to 100 nM | CN1C(=O)[C@@]2(C[C@@H](c3ccccc3)Oc3ccc(-c4cccc(C#N)c4)cc32)N=C1N [Compound 2b]
31 | 100 to 500 nM | N#Cc1cccc(-c2ccc3c(c2)C2(CC(c4ccccc4)O3)N=C(N)N(CCC3CC3)C2=O)c1 (stereo not shown) [Compound 10]
32 | 500 to 1000 nM | CN1C(=O)C2(CC(c3ccccc3)Oc3ccc(-c4cc(N)cc(C#N)c4)cc32)N=C1N (stereo not shown) [Compound 17, 3-amino-5-(2′-amino-1′-methyl-5′-oxo-2-phenyl-1′,5′-dihydrospiro[chroman-4,4′-imidazole]-6-yl)benzonitrile]
33 | 500 to 1000 nM | CN1C(=O)C2(CC(c3ccc(F)cc3)Oc3ccc(-c4cccc(C#N)c4)cc32)N=C1N (stereo not shown) [Compound 19, 3-(2′-amino-2-(4-fluorophenyl)-1′-methyl-5′-oxo-1′,5′-dihydrospiro[chroman-4,4′-imidazole]-6-yl)benzonitrile]
34 | 500 to 1000 nM | CN1C(=O)C2(CC(c3cccc(Cl)c3)Oc3ccc(-c4cccc(C#N)c4)cc32)N=C1N (stereo not shown) [Compound 20, 3-(2′-amino-2-(3-chlorophenyl)-1′-methyl-5′-oxo-1′,5′-dihydrospiro[chroman-4,4′-imidazole]-6-yl)benzonitrile]

From patent publication US8450308B2 (Vitae Pharmaceuticals, Inc., priority 2008, dated 2013)
